Reference: publication PMC6698739, “Structural intermediates of a DNA–ligase complex illuminate the role of the catalytic metal ion and mechanism of phosphodiester bond formation” (Nucleic Acids Research, 2019)

Target: T1, Pmar-Lig (Prochlorococcus marinus, UniProt A0A0A2ACP7)
T1 construct: gene EU96_0746; codon-optimised synthetic gene in pDEST17; tag removed; three domains (DB, AD, OB); 432 residues modelled in wild-type crystals
Assay: X-ray crystal structure, […] A
Format: binding
Settings: post-step 3 complex with sealed DNA product; partial occupancy (adenine nucleobase 0.75, phosphate 0.5); some residual covalent DNA-adenylate; pH 6.5 crystallisation

T1 sequence (A0A0A2ACP7 entry or part of it): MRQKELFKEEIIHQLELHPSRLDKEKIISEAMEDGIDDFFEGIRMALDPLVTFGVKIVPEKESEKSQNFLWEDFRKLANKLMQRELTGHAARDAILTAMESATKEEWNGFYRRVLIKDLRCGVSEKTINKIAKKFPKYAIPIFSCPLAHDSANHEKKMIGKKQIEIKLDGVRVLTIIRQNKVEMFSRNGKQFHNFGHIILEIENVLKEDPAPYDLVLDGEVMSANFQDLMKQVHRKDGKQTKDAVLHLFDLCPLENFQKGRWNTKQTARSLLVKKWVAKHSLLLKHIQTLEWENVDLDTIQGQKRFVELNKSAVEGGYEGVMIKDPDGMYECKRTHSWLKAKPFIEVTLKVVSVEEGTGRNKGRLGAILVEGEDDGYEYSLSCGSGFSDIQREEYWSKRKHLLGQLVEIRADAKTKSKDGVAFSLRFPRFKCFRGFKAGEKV

SMILES: Nc1ncnc2c1ncn2[C@@H]1O[C@H](COP(=O)(O)O)[C@@H](O)[C@H]1O [AMP]
- X-ray crystal structure, 1.99 A: with the DNA product retained in the active site, as well as residual AMP
